# Experimental data as given in patent publication US10265374B2, “Occidiofungin formations and uses thereof” (MISSISSIPPI STATE UNIVERSITY, priority 2014, dated 2019).
# System: normal human neonatal dermal fibroblasts cell line
# Experiment: In vitro toxicity screening (CellTiter-Blue cell viability, 48 hours)
# Assay type: cell-based
# From the text: Cancer cell lines, OVCAR8 (Center for Cancer Research (OVAR.8; Sample ID 25)), SW1088 (ATCC-HTB-12), and Toledo (ATCC CRL-2631), and normal human neonatal dermal fibroblasts cell line (ATCC-PCS-201-010) were passaged and prepped as previously described (See References 15-17). OVCAR8, SW1088, and Toledo2631 are ovarian, brain, and B-cell lymphoma cancer cell lines, respectively. This panel of cell lines was chosen based, in part, on their being from very different cancer types in order to discern whether occidiofungin would have a broad spectrum activity towards cancer cell lines of vastly different parental organ/cell types. OVCAR8 cells are widely used in the field of cancer therapeutic research as a panel representative of ovarian cancer in screening experiments for identifying both ovarian-specific and non-specific (i.e., anti-neoplastic activity on multiple cancer cell types) therapeutic agents (See References 28-30). Similarly, SW1088 cells are widely used in the field of cancer therapeutic research as a panel representative of glioma (the most common brain cancer) in screening experiments for identifying both glioma-specific and non-specific therapeutic agents (See References 31-32). Toledo 2631 cells are derived from lymphoma cells, and are used in the field of cancer therapeutic research for identifying lymphoma-specific and non-specific therapeutic agents (See, e.g., Reference 33). […] Cell counts per plate were calculated to be approximately 50,000 cells/mL. A 10× stock solution of occidiofungin was prepared at 65 μM concentration in 10% dimethyl sulfoxide (DMSO). Two-fold serial dilutions on a 96 well plate were set up in triplicate with starting concentration of 6.5 μM and a final concentration of 3 nM. Bortezomib was used as a comparator for toxicity against human fibroblast and was serially diluted two-fold starting at a concentration of 5 μM and ending at 2.5 nM. Bortezomib is used clinically against myeloma and lymphoma cancers in patients refractory against other chemotherapeutics (See References 18, 19). Furthermore, bortezomib has shown efficacy against a variety of solid tumors and cancer cell lines, making this an appropriate comparison molecule in the panel of cell lines chosen (See References 34-35). The plates were then incubated at 37° C. in 5% CO2 for 48 hours. After 48 hours, cell viability was monitored using CellTiter-Blue (Promega) cell viability assay by measuring the fluorescence emission of a redox activated dye (579EX/584EM) using a POLARstar Omega microplate reader (BMG Labtech).
substance,measurement,setting,value
occidiofungin,cancer cell lines relative to normal human primary dermal fibroblasts cell line,"TC50 of OVCAR8, SW1088, Toledo vs fibroblasts",approximately eight-fold higher
same,CC50,"human fibroblast cell line, 48 hours, mean of three independent experiments, read-out: TC50 (the source's name)",533 nM
same,activity relative to bortezomib against the human fibroblast cell line,occidiofungin vs bortezomib,approximately eight-fold higher
